Reference: ChEMBL document CHEMBL3885861, “Open TG-GATES”

Organism: Rattus norvegicus
Assay: Open TG-GATES - Regimen: Daily Repeat
Type: toxicity, organism-based, Sprague-Dawley
Set-up: regimen Daily Repeat, gender Male, age 6 weeks
Conditions: in vivo, po, route gavage; for APTT / Bas / Eos / Fbg / Hb / Ht / Lym / MCH / MCHC / MCV / Mono / Neu / PT / Plat / RBC / Ret / WBC: tissue Blood; for KIDNEY_L / KIDNEY_R / KIDNEY_TOTAL: tissue Kidney; for LIVER: tissue Liver; for A/G / ALP / ALT / AST / BUN / CRE / Ca / Cl / DBIL / GLC / IP / K / LDH / Na / PL / RALB / TBIL / TC / TG / TP / gamma-GTP: tissue Plasma
[1] = 1000 mg/kg, 72 h, dose level Middle, time 3 day
[2] = 1000 mg/kg, […], dose level Middle, time 7 day
[3] = 1000 mg/kg, […], dose level Middle, time 14 day
[4] = 1000 mg/kg, […], dose level Middle, time 28 day
[5] = 2000 mg/kg, 72 h, dose level High, time 3 day
[6] = 2000 mg/kg, […], dose level High, time 7 day
[7] = 2000 mg/kg, […], dose level High, time 14 day
[8] = 2000 mg/kg, […], dose level High, time 28 day

## COc1ccc(O)c(C(C)(C)C)c1.COc1ccc(O)cc1C(C)(C)C [BUTYLATED HYDROXYANISOLE]
[1]
  TERMINAL_BW: 219.1 g
  APTT: 16.1 s
  Bas: 0.3%
  Eos: 0.7%
  Fbg: 310.6 mg/dL
  Hb: 12.6 g/dL
  Ht: 36.7%
  Lym: 75.6%
  MCH: 20.5 pg
  MCHC: 34.3%
  MCV: 59.6 fL
  Mono: 3.1%
  Neu: 19.4%
  PT: 10.9 s
  Plat: 134.7 x10_4/uL
  RBC: 615.6 x10_4/ul
  Ret: 3.6%
  WBC: 130.3 x10_2/uL
  KIDNEY_L: 1 g
  KIDNEY_R: 0.9 g
  KIDNEY_TOTAL: 1.9 g
  LIVER: 15 g
  A/G: 0.8
  ALP: 1334 IU/L
  ALT: 44.6 IU/L
  AST: 65.6 IU/L
  BUN: 16 mg/dL
  CRE: 0.2 mg/dL
  Ca: 11.5 mg/dL
  Cl: 104.6 meq/L
  DBIL: 0.028 mg/dL
  GLC: 171.4 mg/dL
  IP: 7 mg/dL
  K: 3.9 meq/L
  LDH: 71.8 IU/L
  Na: 142.4 meq/L
  PL: 200.8 mg/dL
  RALB: 2.6 g/dL
  TBIL: 0.092 mg/dL
  TC: 115.2 mg/dL
  TG: 76.2 mg/dL
  TP: 5.9 g/dL
  gamma-GTP: 1.6 IU/L
[2]
  TERMINAL_BW: 247 g
  APTT: 16.2 s
  Bas: 0.3%
  Eos: 0.6%
  Fbg: 341 mg/dL
  Hb: 13.3 g/dL
  Ht: 38.5%
  Lym: 79%
  MCH: 20.6 pg
  MCHC: 34.5%
  MCV: 59.7 fL
  Mono: 2%
  Neu: 17.1%
  PT: 11.6 s
  Plat: 156.6 x10_4/uL
  RBC: 645.8 x10_4/ul
  Ret: 5.7%
  WBC: 119.3 x10_2/uL
  KIDNEY_L: 1 g
  KIDNEY_R: 1 g
  KIDNEY_TOTAL: 2 g
  LIVER: 13.6 g
  A/G: 0.8
  ALP: 1105 IU/L
  ALT: 35.6 IU/L
  AST: 56.8 IU/L
  BUN: 16.4 mg/dL
  CRE: 0.2 mg/dL
  Ca: 11.3 mg/dL
  Cl: 105.4 meq/L
  DBIL: 0.024 mg/dL
  GLC: 171.8 mg/dL
  IP: 6.8 mg/dL
  K: 3.7 meq/L
  LDH: 62.8 IU/L
  Na: 143 meq/L
  PL: 188.2 mg/dL
  RALB: 2.8 g/dL
  TBIL: 0.054 mg/dL
  TC: 103.4 mg/dL
  TG: 144.4 mg/dL
  TP: 6.4 g/dL
  gamma-GTP: 1.2 IU/L
[3]
  TERMINAL_BW: 309.8 g
  APTT: 19.6 s
  Bas: 0.3%
  Eos: 0.7%
  Fbg: 334.2 mg/dL
  Hb: 13.6 g/dL
  Ht: 39.6%
  Lym: 76.3%
  MCH: 19.9 pg
  MCHC: 34.3%
  MCV: 57.9 fL
  Mono: 2.4%
  Neu: 19.6%
  PT: 11.8 s
  Plat: 132.4 x10_4/uL
  RBC: 684.8 x10_4/ul
  Ret: 3.9%
  WBC: 105.1 x10_2/uL
  KIDNEY_L: 1.2 g
  KIDNEY_R: 1.1 g
  KIDNEY_TOTAL: 2.3 g
  LIVER: 18 g
  A/G: 0.7
  ALP: 1071.8 IU/L
  ALT: 36.8 IU/L
  AST: 56.8 IU/L
  BUN: 19 mg/dL
  CRE: 0.2 mg/dL
  Ca: 11.1 mg/dL
  Cl: 105 meq/L
  DBIL: 0.022 mg/dL
  GLC: 169 mg/dL
  IP: 5.9 mg/dL
  K: 3.8 meq/L
  LDH: 50 IU/L
  Na: 143.6 meq/L
  PL: 199.8 mg/dL
  RALB: 2.8 g/dL
  TBIL: 0.046 mg/dL
  TC: 103 mg/dL
  TG: 164.8 mg/dL
  TP: 6.6 g/dL
  gamma-GTP: 1.8 IU/L
[4]
  TERMINAL_BW: 393.4 g
  APTT: 20.3 s
  Bas: 0.4%
  Eos: 1%
  Fbg: 290.2 mg/dL
  Hb: 14.7 g/dL
  Ht: 41.5%
  Lym: 77.6%
  MCH: 19.5 pg
  MCHC: 35.4%
  MCV: 55 fL
  Mono: 1.8%
  Neu: 18.4%
  PT: 12.1 s
  Plat: 119.1 x10_4/uL
  RBC: 754.6 x10_4/ul
  Ret: 2.2%
  WBC: 117.9 x10_2/uL
  KIDNEY_L: 1.3 g
  KIDNEY_R: 1.3 g
  KIDNEY_TOTAL: 2.6 g
  LIVER: 20 g
  A/G: 0.7
  ALP: 853 IU/L
  ALT: 35.6 IU/L
  AST: 55.6 IU/L
  BUN: 17.4 mg/dL
  CRE: 0.3 mg/dL
  Ca: 11.2 mg/dL
  Cl: 104.4 meq/L
  DBIL: 0.018 mg/dL
  GLC: 183.8 mg/dL
  IP: 5.8 mg/dL
  K: 3.4 meq/L
  LDH: 58.2 IU/L
  Na: 145.2 meq/L
  PL: 161 mg/dL
  RALB: 2.7 g/dL
  TBIL: 0.058 mg/dL
  TC: 88.4 mg/dL
  TG: 115.4 mg/dL
  TP: 6.5 g/dL
  gamma-GTP: 1.4 IU/L
[5]
  TERMINAL_BW: 199.9 g
  APTT: 18.9 s
  Bas: 0.2%
  Eos: 0.7%
  Fbg: 288 mg/dL
  Hb: 13.9 g/dL
  Ht: 40.3%
  Lym: 78.1%
  MCH: 20.7 pg
  MCHC: 34.6%
  MCV: 59.8 fL
  Mono: 2.8%
  Neu: 17.5%
  PT: 11.8 s
  Plat: 152.4 x10_4/uL
  RBC: 673.2 x10_4/ul
  Ret: 2.1%
  WBC: 93.2 x10_2/uL
  KIDNEY_L: 0.9 g
  KIDNEY_R: 0.9 g
  KIDNEY_TOTAL: 1.8 g
  LIVER: 12.3 g
  A/G: 0.8
  ALP: 1414.4 IU/L
  ALT: 69.4 IU/L
  AST: 76.4 IU/L
  BUN: 14.2 mg/dL
  CRE: 0.2 mg/dL
  Ca: 10.9 mg/dL
  Cl: 108.2 meq/L
  DBIL: 0.036 mg/dL
  GLC: 152 mg/dL
  IP: 5.5 mg/dL
  K: 3.6 meq/L
  LDH: 70.2 IU/L
  Na: 143 meq/L
  PL: 197 mg/dL
  RALB: 2.5 g/dL
  TBIL: 0.09 mg/dL
  TC: 113 mg/dL
  TG: 106.4 mg/dL
  TP: 5.5 g/dL
  gamma-GTP: 2.8 IU/L
[6]
  TERMINAL_BW: 225.2 g
  APTT: 15.8 s
  Bas: 0.3%
  Eos: 0.5%
  Fbg: 316.8 mg/dL
  Hb: 13.2 g/dL
  Ht: 38.2%
  Lym: 76.9%
  MCH: 20.2 pg
  MCHC: 34.6%
  MCV: 58.3 fL
  Mono: 3.4%
  Neu: 18.2%
  PT: 11.6 s
  Plat: 176.3 x10_4/uL
  RBC: 655.8 x10_4/ul
  Ret: 4.1%
  WBC: 146.4 x10_2/uL
  KIDNEY_L: 0.9 g
  KIDNEY_R: 0.9 g
  KIDNEY_TOTAL: 1.8 g
  LIVER: 12.6 g
  A/G: 0.8
  ALP: 797 IU/L
  ALT: 44.8 IU/L
  AST: 61.2 IU/L
  BUN: 17 mg/dL
  CRE: 0.2 mg/dL
  Ca: 11.5 mg/dL
  Cl: 105.4 meq/L
  DBIL: 0.032 mg/dL
  GLC: 157 mg/dL
  IP: 7.7 mg/dL
  K: 3.4 meq/L
  LDH: 62.8 IU/L
  Na: 143.8 meq/L
  PL: 180 mg/dL
  RALB: 2.7 g/dL
  TBIL: 0.066 mg/dL
  TC: 102.6 mg/dL
  TG: 97.2 mg/dL
  TP: 6.1 g/dL
  gamma-GTP: 2.4 IU/L
[7]
  TERMINAL_BW: 262.1 g
  APTT: 18.4 s
  Bas: 0.2%
  Eos: 0.6%
  Fbg: 295.6 mg/dL
  Hb: 13.6 g/dL
  Ht: 39.4%
  Lym: 71.9%
  MCH: 19.7 pg
  MCHC: 34.6%
  MCV: 56.9 fL
  Mono: 2.6%
  Neu: 23.8%
  PT: 12.1 s
  Plat: 130.9 x10_4/uL
  RBC: 693.8 x10_4/ul
  Ret: 3.8%
  WBC: 103.7 x10_2/uL
  KIDNEY_L: 1 g
  KIDNEY_R: 1 g
  KIDNEY_TOTAL: 2 g
  LIVER: 15.3 g
  A/G: 0.8
  ALP: 1011.2 IU/L
  ALT: 39.4 IU/L
  AST: 59.2 IU/L
  BUN: 18.4 mg/dL
  CRE: 0.2 mg/dL
  Ca: 11.2 mg/dL
  Cl: 105.6 meq/L
  DBIL: 0.026 mg/dL
  GLC: 159.8 mg/dL
  IP: 6.2 mg/dL
  K: 3.4 meq/L
  LDH: 43.6 IU/L
  Na: 144.8 meq/L
  PL: 204.4 mg/dL
  RALB: 2.8 g/dL
  TBIL: 0.062 mg/dL
  TC: 108 mg/dL
  TG: 153.6 mg/dL
  TP: 6.2 g/dL
  gamma-GTP: 3 IU/L
[8]
  TERMINAL_BW: 342.7 g
  APTT: 22.8 s
  Bas: 0.4%
  Eos: 0.7%
  Fbg: 317.2 mg/dL
  Hb: 14.7 g/dL
  Ht: 41.8%
  Lym: 75.1%
  MCH: 19 pg
  MCHC: 35.3%
  MCV: 53.8 fL
  Mono: 2.1%
  Neu: 21%
  PT: 12.5 s
  Plat: 129.2 x10_4/uL
  RBC: 778.2 x10_4/ul
  Ret: 2.2%
  WBC: 110.2 x10_2/uL
  KIDNEY_L: 1.2 g
  KIDNEY_R: 1.2 g
  KIDNEY_TOTAL: 2.4 g
  LIVER: 19.6 g
  A/G: 0.7
  ALP: 696 IU/L
  ALT: 36.6 IU/L
  AST: 58 IU/L
  BUN: 19.8 mg/dL
  CRE: 0.2 mg/dL
  Ca: 11.3 mg/dL
  Cl: 104.8 meq/L
  DBIL: 0.022 mg/dL
  GLC: 174.8 mg/dL
  IP: 5.6 mg/dL
  K: 3.5 meq/L
  LDH: 58.2 IU/L
  Na: 145.8 meq/L
  PL: 198.8 mg/dL
  RALB: 2.8 g/dL
  TBIL: 0.068 mg/dL
  TC: 109 mg/dL
  TG: 121 mg/dL
  TP: 6.6 g/dL
  gamma-GTP: 2.6 IU/L
